Laboratory results reported in patent publication US20030008331A1, “Directed evolution biosensors” (priority 1998, published 2003).

Test system: cells which do not express the β2-adrenergic receptor (wild type)
Assay: melanophore pigment dispersion assay, wild type cells
Format: cell-based, frog
Details: wild type melanophores, two successive tests

CC(C)(C)NCC(O)c1ccc(O)c(CO)c1 (stereo not shown) [salbutamol]
response of cells to challenge: did not respond
